This passage reports IC50 results from paper PMC8000889, “Phenolic Compounds from Leaves and Flowers of Hibiscus roseus: Potential Skin Cosmetic Applications of an Under-Investigated Species” (Plants, 2021).

In brackets after ≈: the same amount, converted by molar mass.

For the experiment, the target named is T1, collagenase (Collagenase Activity Assay Kit, Sigma-Aldrich).
T1 construct: gene colG
Briefly: FALGPA hydrolysis, absorbance at […] nm. The class given is biochemical. To be noted: substrate FALGPA; 96-well plate, 200 μL, followed for 20 min.

`O=c1c(O)c(-c2ccc(O)c(O)c2)oc2cc(O)cc(O)c12` [quercetin] returned an IC50 of 5.6 ± 0.7 µg/mL (≈ 18.5 µM).
